Test results: ChEMBL document CHEMBL1781877, “Synthesis and evaluation of new carbonic anhydrase inhibitors” (2011)

System: Mus musculus
Assay: Antihypoxic activity in fasted Kunming mouse assessed as survival time of mouse under hypoxic condition at 80 mg/kg administered for 5 days (reference value: 2199 +/-217 secs)
Format: functional

| Compound | Time [s] |
| --- | --- |
| CCN(c1nnc(S(N)(=O)=O)s1)S(=O)(=O)c1ccccc1 | 2716 |
| CCCN(c1nnc(S(N)(=O)=O)s1)S(=O)(=O)c1ccccc1 | 3135 |
| Cc1ccc(S(=O)(=O)N(Cc2ccccc2)c2nnc(S(N)(=O)=O)s2)cc1 | 2582 |
| CCCCN(c1nnc(S(N)(=O)=O)s1)S(=O)(=O)c1ccccc1 | 2977 |
| CC(=O)Nc1nnc(S(N)(=O)=O)s1 [ACETAZOLAMIDE] | 2726 |
| Cc1ccc(CN(c2nnc(S(N)(=O)=O)s2)S(=O)(=O)c2ccc(C)cc2)cc1 | 2512 |
| Cc1ccc(S(=O)(=O)N(CCc2ccccc2)c2nnc(S(N)(=O)=O)s2)cc1 | 2441 |
| CCCCCN(c1nnc(S(N)(=O)=O)s1)S(=O)(=O)c1ccccc1 | 2716 |
| Cc1ccc(S(=O)(=O)N(CC(C)C)c2nnc(S(N)(=O)=O)s2)cc1 | 3486 |
| Cc1ccc(S(=O)(=O)N(Cc2ccc(F)cc2)c2nnc(S(N)(=O)=O)s2)cc1 | 2860 |
| Cc1ccc(S(=O)(=O)N(c2nnc(S(N)(=O)=O)s2)C(C)C)cc1 | 2426 |
